From US20100048534A1, “CRYSTALLINE LESTAURTINIB HYDRATES AND CRYSTALLINE LESTAURTINIB HEMIHYDRATE HEMIACETONITRILEATE AND CRYSTALLINE LESTAURTINIB HEMIHYDRATE HEMITETRAHYDROFURANATE” (priority 2005, published 2010) come the findings set out here.

Molecules are shown by their SMILES.

The series can be described thus: Solid-state stability and moisture sorption versus relative humidity (dynamic moisture sorption gravimetry, DMSG). It is filed as physicochemical.

Turning to `C[C@]12O[C@H](C[C@]1(O)CO)n1c3ccccc3c3c4c(c5c6ccccc6n2c5c31)CNC4=O` [Crystalline lestaurtinib anhydrate, lestaurtinib anhydrate], the “water content of solid-state phase by DMSG” value (25° C., between 0% and 5% RH, w/w) is recorded as “less than 0.5%”. Moreover, the “behaviour above 5% RH” value (ambient temperature, above 5% RH) is “absorbs moisture above 5% RH to form crystalline lestaurtinib monohydrate”.
